From US20220362353A1, “DRUG COMBINATION FOR PREVENTING OR TREATING IRRITABLE BOWEL SYNDROME” (GUANGZHOU CENTURY CLINICAL RESEARCH CO., LTD, priority 2019, published 2022)

Assays:
[1] = test system: irritable bowel syndrome model animals; assay: Electromyography (EMG) test of external oblique abdominal muscles after colorectal distension; assay type: in vivo, SD rats (Sprague-Dawley rats); details: for AUC (%) of EMG of colorectal distension at different pressures (mean ± SD): 3 months old, after 1-month daily gavage, normalized to average baseline amplitude (100%)
Experimental: In this example, the irritable bowel syndrome model was induced by daily applying colorectal distension as a stimulating factor to neonatal SD rats (Sprague-Dawley rats) from 8 days old to 21 days old. This model animal had visceral hypersensitivity of irritable bowel syndrome and without colonitis and mucosal injury. Colorectal distension stimulation was not given any more from 21 days old to 8 weeks old. A test drug or placebo was administered daily by gavage from 8 weeks old to 3 months old. On the 8 weeks old (before the beginning of the 1-month drug administration period) and about 3 months old (after the end of the 1-month drug administration period), behavioral and neural responses of rats to colorectal distention stimulation were tested by an abdominal wall withdrawal reflex test and an electromyography test. 8-day-old neonatal male SD rats with normal body weight were exposed to a 12:12 hr light-dark cycle. Every 12 neonatal rats and 1 adult female rat were co-bred with rat milk until 25 days old. Then every 4 neonatal rats were fed in the same cage, and they were allowed to eat and drink freely. The SD rats were randomly divided into a normal control group, a model group, a dosmalfate group, a lysozyme group, a first combination group (a dosage ratio of dosmalfate to lysozyme was 0.05:1), a second combination group (a dosage ratio of dosmalfate to lysozyme was 0.1:1), a third combination group (a dosage ratio of dosmalfate to lysozyme was 10:1), and a fourth combination group (a dosage ratio of dosmalfate to lysozyme was 20:1), and 12 animals were assigned to each group. Except for normal control group, colorectal distension (CRD) stimulation was applied to the rats in other groups every day from 8 days old to 21 days old to induce irritable bowel syndrome. The concrete operation method was as follows: a flexible balloon (with a polytetrafluoroethylene catheter; the balloon should be inflated overnight before the experiment so that it has better compliance) made of the fingers of surgical gloves, was smeared with vaseline, inserted from the anus of the rat to the colon and then fixed at the tail distanced away from the anus by 2 cm. The balloon was connected with a valve via the catheter, and the valve was additionally connected with a sphygmomanometer. Rats were placed in small plastic cages to restrict their turning and acclimatized for 30 minutes. The balloon was slowly inflated to 60 mm Hg with the sphygmomanometer, and deflated after stimulation for 20 seconds; the stimulation was repeated twice within 1 hour (with an interval of 30 minutes each time). Except for normal control group and model group, test drugs (wetted in 0.5% sodium carboxymethyl cellulose solution) were administrated to the rats in the other groups by gavage daily from 8 weeks old to 3 months old, and the dosage was 8 ml. The visceral hypersensitivity (neural response) of rats to colorectal distension was quantified by measuring the electromyographic activity of external oblique abdominal muscles. When the rats in each group were 3 months old (after the end of the 1-month drug administration period), they were subjected to abdominal wall withdrawal reflex test followed by EMG test after abdominal wall withdrawal reflex test. On the second day when 3-month-old rats in each group were subjected to abdominal wall withdrawal reflex test, an appropriate amount of pentobarbital solution (50 mg/ml) was injected into the abdominal cavities of the rats, and the rats were fully anesthetized. The hairs on the lower abdomen and the back of the neck were cut, a needle electrode (tungsten microelectrode) was implanted into the left side of the abdomen of the rat, fixed in the muscle layer of the external oblique abdominal muscle, and the electrode wire was crossed through the subcutaneous of the left side of the rat to a small incision at the rear neck and out of the small incision. […]

[2] = test system: irritable bowel syndrome model animals; assay: Abdominal withdrawal reflex (AWR) test after colorectal distension; assay type: in vivo, SD rats (Sprague-Dawley rats); details: for Abdominal withdrawal reflex scores of colorectal distension at different pressures (mean ± SD): 3 months old, after 1-month daily gavage, score 0-4
Experimental: In this example, the irritable bowel syndrome model was induced by daily applying colorectal distension as a stimulating factor to neonatal SD rats (Sprague-Dawley rats) from 8 days old to 21 days old. This model animal had visceral hypersensitivity of irritable bowel syndrome and without colonitis and mucosal injury. Colorectal distension stimulation was not given any more from 21 days old to 8 weeks old. A test drug or placebo was administered daily by gavage from 8 weeks old to 3 months old. On the 8 weeks old (before the beginning of the 1-month drug administration period) and about 3 months old (after the end of the 1-month drug administration period), behavioral and neural responses of rats to colorectal distention stimulation were tested by an abdominal wall withdrawal reflex test and an electromyography test. 8-day-old neonatal male SD rats with normal body weight were exposed to a 12:12 hr light-dark cycle. Every 12 neonatal rats and 1 adult female rat were co-bred with rat milk until 25 days old. Then every 4 neonatal rats were fed in the same cage, and they were allowed to eat and drink freely. The SD rats were randomly divided into a normal control group, a model group, a dosmalfate group, a lysozyme group, a first combination group (a dosage ratio of dosmalfate to lysozyme was 0.05:1), a second combination group (a dosage ratio of dosmalfate to lysozyme was 0.1:1), a third combination group (a dosage ratio of dosmalfate to lysozyme was 10:1), and a fourth combination group (a dosage ratio of dosmalfate to lysozyme was 20:1), and 12 animals were assigned to each group. Except for normal control group, colorectal distension (CRD) stimulation was applied to the rats in other groups every day from 8 days old to 21 days old to induce irritable bowel syndrome. The concrete operation method was as follows: a flexible balloon (with a polytetrafluoroethylene catheter; the balloon should be inflated overnight before the experiment so that it has better compliance) made of the fingers of surgical gloves, was smeared with vaseline, inserted from the anus of the rat to the colon and then fixed at the tail distanced away from the anus by 2 cm. The balloon was connected with a valve via the catheter, and the valve was additionally connected with a sphygmomanometer. Rats were placed in small plastic cages to restrict their turning and acclimatized for 30 minutes. The balloon was slowly inflated to 60 mm Hg with the sphygmomanometer, and deflated after stimulation for 20 seconds; the stimulation was repeated twice within 1 hour (with an interval of 30 minutes each time). Except for normal control group and model group, test drugs (wetted in 0.5% sodium carboxymethyl cellulose solution) were administrated to the rats in the other groups by gavage daily from 8 weeks old to 3 months old, and the dosage was 8 ml. The abdominal wall withdrawal reflex test was used to detect behavioral responses of rats to colorectal distension stimulation. This test was performed when rats in respective groups were 8 weeks old (before the start of the 1-month drug administration period) and 3 months old (after the end of the 1-month drug administration period). The rats were fasted overnight before undergoing the abdominal wall withdrawal reflex test, so as to reduce gastrointestinal contents. During the test, a flexible balloon (with a thin-walled polytetrafluoroethylene catheter; the balloon should be inflated overnight before the experiment so that it has better compliance) made of the fingers of surgical gloves, was smeared with vaseline and inserted from the anus of the rat by 7 cm to the colon and fixed at the caudal point by 2 cm distanced away from the anus. The balloon was connected with the valve via the catheter, and the valve was additionally connected with a sphygmomanometer. Rats were placed in small plastic cages to restrict their turning and acclimatized for 30 minutes. […]

Substance	AUC (%) of EMG of colorectal distension at different pressures (mean ± SD) ([1]; 20 mm Hg)	AUC (%) of EMG of colorectal distension at different pressures (mean ± SD) ([1]; 40 mm Hg)	AUC (%) of EMG of colorectal distension at different pressures (mean ± SD) ([1]; 60 mm Hg)	EMG test result compared with model group, in words ([1]; after administration)	Abdominal withdrawal reflex scores of colorectal distension at different pressures (mean ± SD) ([2]; 20 mm Hg)	Abdominal withdrawal reflex scores of colorectal distension at different pressures (mean ± SD) ([2]; 40 mm Hg)	Abdominal withdrawal reflex scores of colorectal distension at different pressures (mean ± SD) ([2]; 60 mm Hg)	abdominal wall withdrawal reflex values compared with model group, in words ([2]; after administration)
Lysozyme	303 ± 36%	394 ± 60%	601 ± 60 ^ %	no significant difference	2.11 ± 0.33	2.69 ± 0.41	3.56 ± 0.36	no significant difference
diosmin heptadiene (bisulfate) aluminum complex [Dosmalfate, reference compound]	332 ± 39%	445 ± 99%	644 ± 117 ^ %	–	2.25 ± 0.45	2.56 ± 0.30	3.64 ± 0.30	–
